What all share (format): in vivo, maize
Data set [1] has as its system ZEAMA Sileno. Kind of data set: Seed treatment with safener; post-emergence herbicide application. More on the design: Reduction [Difference]: scale not given here. The conditions noted are these: Final assessment; for Reduction [%] / Reduction [Difference]: Cyprosulfamide 0.5 g a.i./kg seed; for Reduction [Difference]: damage without safener - damage with safener; for HER effect + SAF (crop damage with safener): Cyprosulfamide seed treatment 0.5 g a.i./kg seed; for HER effect (crop damage, herbicide without safener): no safener. The method in brief:
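Maize seeds slurry-coated with WP safener (g a.i./kg seed) or left untreated, sown in sandy loam and grown in greenhouse. WP herbicide sprayed post-emergence at BBCH11-13 in 300 l/ha water with wetting agent and adjuvants (e.g. Mero 1.5 l/ha, ammonium sulphate 2 kg/ha); means of at least 2 replicates.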

The test system of the next data set is ZEAMA Abraxas. Briefly: Tank-mix; post-emergence, crop damage with and without safener. The conditions noted are these: for HER effect + SAF / HER effect: Final assessment; for HER effect: no safener. The essentials:
(§1)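 Crops in sandy loam in the greenhouse were sprayed at the 1–3-leaf stage, 2–3 weeks after sowing, with herbicide/safener combinations or the single actives at various dosages in 300 l/ha water. Injury was scored visually 1–3 weeks after treatment as % versus untreated plants (0% none, 100% complete kill).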

For data set [2], the system named is ZEAMA Sileno. Kind of data set: Treatment 1 day before (safener applied one day before herbicide, post-emergence). Also on record: key to Reduction [Difference]: percentage points of visually scored % crop damage vs untreated control. The conditions noted are these: for Reduction [%] / Reduction [Difference]: HER 32 g a.i./ha, cyprosulfamide 100 g a.i./ha 1 day before; for HER effect + SAF / HER effect: HER dose 32 g a.i./ha, Final assessment; for HER effect + SAF: cyprosulfamide 100 g a.i./ha applied 1 day before; for HER effect: no safener. An excerpt: Seeds of crops (spring wheat, TRZAS; spring barley, HORVS; maize, ZEAMA) were placed in sandy loam soil in pots of a diameter of 7-8 cm, covered with soil, and cultivated in a greenhouse under good growth conditions until plants were at the 1-3 leaf stage (BBCH 11-13). For split safener and herbicide treatment, first the safener was applied followed by the herbicide treatment on the following day. The safener and herbicides were formulated as WP and sprayed onto the green parts of the plants as an aqueous suspension at an equivalent water application rate of 300 1/ha, with addition of wetting agent and adjuvants (e.g. Mero, 1.5 1/ha; ammonium sulphate, 2 kg/ha). An equivalent set of plants was treated with the herbicides but without the prior safener treatment.
After application, the test plants were kept in the greenhouse under good growth conditions. 10 and 21 days after treatment (DAT) with the herbicide, % crop damage observed on the treated plants was scored visually in comparison to control plants that had not received any safener or herbicide treatment.

Data set [3] deals with ZEAMA Sileno. Briefly: Tank-mix; post-emergence, crop damage with and without safener. The conditions noted are these: for HER effect + SAF / HER effect: Final assessment; for HER effect: no safener. The essentials:
as §1

Data set [4] has as its system ZEAMA Sileno. Briefly: Seed treatment with safener; pre-emergence herbicide application. The conditions noted are these: 26 DAT; for Reduction [%] / Reduction [Difference]: cyprosulfamide 0.25 g a.i./kg seed; for HER effect + SAF: cyprosulfamide seed treatment 0.25 g a.i./kg seed; for HER effect: no safener. As for the experimental part: For the safener seed treatment, sufficient seeds of the respective crops (spring wheat, TRZAS; spring barley, HORVS; maize, ZEAMA) were weighed into screw top glass bottles approximately twice the volume of the seeds.
The specified safeners, formulated as wettable powder (WP) were weighed out so that the specified rates (g a.i./kg seed) would be obtained, dissolved in water (1 ml water per 10 g of seeds), and added to the seeds to produce a slurry.
The bottles were capped and then placed in an overhead shaker (set at medium speed for ca. 60 minutes) so that the seeds were evenly coated with the slurry. The bottles were uncapped and the seeds were either placed on paper and dried for an interval of 3-4 hours prior to sowing, or directly sown. Seeds were placed in sandy loam soil in pots of a diameter of 7-8 cm, and covered with soil.
Pre-emergence application of the specified herbicides was done subsequently, on two sets of plants: • a) seed treatment with safener, as described above • b) no safener treatment
The herbicides were formulated as WP and was sprayed onto the soil surface as an aqueous suspension at an equivalent water application rate of 300 1/ha.
After application, the test plants were kept in the greenhouse under good growth conditions. At intervals up to 4 weeks after application (=28 days after treatment; DAT), % crop damage observed on the treated plants was scored visually in comparison to control plants that had not received any safener or herbicide treatment.
Values in the table below are mean values of at least 2 replicates.

Setting [5] is: HER 2 g a.i./ha, cyprosulfamide 50 g a.i./ha.
[6] abbreviates: HER dose 2 g a.i./ha + cyprosulfamide 50 g a.i./ha tank-mix.
Where [7] appears, read: HER 8 g a.i./ha, cyprosulfamide 50 g a.i./ha.
Setting [8] is: HER dose 8 g a.i./ha + cyprosulfamide 50 g a.i./ha tank-mix.
The mark [9] stands for this setting: HER 32 g a.i./ha, cyprosulfamide 100 g a.i./ha.
Setting [10] is: HER dose 32 g a.i./ha + cyprosulfamide 100 g a.i./ha tank-mix.
[11] abbreviates: HER dose 40 g a.i./ha pre-emergence.
Where [12] appears, read: HER dose 80 g a.i./ha pre-emergence.

As to `COC(=O)C1C=CC(NC(=O)C2(C)CC(c3cc(F)cc(F)c3)=NO2)C1` (stereo not shown) [Example 1.19], in the data set with ZEAMA Sileno [1] (HER dose 8 g a.i./ha), the “Reduction [%]” value was 75%; the “Reduction [Difference]” value was 30; the “HER effect + SAF (crop damage with safener)” value stood at 10%; the “HER effect (crop damage, herbicide without safener)” value is on record as 40%. Besides, in the data set on ZEAMA Sileno [1] (HER dose 32 g a.i./ha), the “Reduction [%]” value is 75%; the “Reduction [Difference]” value was 60; the “HER effect + SAF (crop damage with safener)” value was 20%; the “HER effect (crop damage, herbicide without safener)” value amounted to 80%. Moreover, in the data set with ZEAMA Abraxas (setting [5]), the “Reduction [%]” value was 80% and the “Reduction [Difference]” value came to 60. Besides, in the data set with ZEAMA Abraxas (setting [6]), the “HER effect + SAF” value was found to be 15%. The HER effect with ZEAMA Abraxas (HER dose 2 g a.i./ha) turned out to be 75%. Moreover, in the data set on ZEAMA Sileno [2], the “Reduction [%]” value amounted to 88%, the “Reduction [Difference]” value is reported as 70, the “HER effect + SAF” value amounted to 10% and the HER effect worked out at 80%.
As for `COC(=O)C1C=CC(NC(=O)C2(C)CC(c3cc(F)cc(Cl)c3)=NO2)C1` (stereo not shown) [Example 1.21], in the data set on ZEAMA Sileno [1] (HER dose 32 g a.i./ha), the “Reduction [%]” value was 71%; the “Reduction [Difference]” value was 25; the “HER effect + SAF (crop damage with safener)” value amounted to 10%; the “HER effect (crop damage, herbicide without safener)” value was 35%. Further, in the data set with ZEAMA Abraxas (setting [7]), the “Reduction [%]” value turned out to be 71% and the “Reduction [Difference]” value is given as 25. In addition, the “HER effect + SAF” value in the data set on ZEAMA Abraxas (setting [8]) is on record as 10%. Further, the HER effect in the data set with ZEAMA Abraxas (HER dose 8 g a.i./ha) was found to be 35%. For the same molecule, in the data set on ZEAMA Sileno [2], the “Reduction [%]” value was 57%, the “Reduction [Difference]” value came out at 20, the “HER effect + SAF” value came out at 15% and the HER effect came to 35%.
Take `C=CC1(C(=O)NC2C=CC(C(=O)OC)C2)CC(c2cc(F)cc(F)c2)=NO1` (stereo not shown) [Example 1.26]: the “Reduction [%]” value in the data set on ZEAMA Sileno [1] (HER dose 8 g a.i./ha) came to 74%; with ZEAMA Sileno [1] (HER dose 32 g a.i./ha), 71%; in the data set on ZEAMA Sileno [3] (setting [7]), 70%; in the data set on ZEAMA Sileno [3] (setting [9]) it was 71%; in the data set on ZEAMA Sileno [4] (HER 40 g a.i./ha), 70%; in the data set on ZEAMA Sileno [4] (HER 80 g a.i./ha) it was 57%. Further, the “Reduction [Difference]” value with ZEAMA Sileno [1] (HER dose 8 g a.i./ha) stood at 42; in the data set with ZEAMA Sileno [1] (HER dose 32 g a.i./ha), 67; in the data set on ZEAMA Sileno [3] (setting [7]), 40; with ZEAMA Sileno [3] (setting [9]), 67; in the data set with ZEAMA Sileno [4] (HER 40 g a.i./ha), 35; with ZEAMA Sileno [4] (HER 80 g a.i./ha), 40. The results for the “HER effect + SAF (crop damage with safener)” value in the data set with ZEAMA Sileno [1] (HER dose 8 g a.i./ha) and with ZEAMA Sileno [1] (HER dose 32 g a.i./ha) were 15% and 27%, respectively. Also, the “HER effect (crop damage, herbicide without safener)” value in the data set with ZEAMA Sileno [1] (HER dose 8 g a.i./ha) is 57%; in the data set on ZEAMA Sileno [1] (HER dose 32 g a.i./ha), 94%. The “HER effect + SAF” value in the data set on ZEAMA Sileno [3] (setting [8]) worked out at 17%; with ZEAMA Sileno [3] (setting [10]), 27%; with ZEAMA Sileno [4] (setting [11]), 15%; in the data set on ZEAMA Sileno [4] (setting [12]) it was 30%. Moreover, the HER effect is on record as 57% with ZEAMA Sileno [3] (HER dose 8 g a.i./ha), 94% with ZEAMA Sileno [3] (HER dose 32 g a.i./ha), 50% with ZEAMA Sileno [4] (setting [11]) and 70% in the data set on ZEAMA Sileno [4] (setting [12]).
With `CC1(C(=O)NC2C=CC(C(=O)OCCSC(F)(F)F)C2)CC(c2cc(F)cc(F)c2)=NO1` (stereo not shown) [Example 1.38], the “Reduction [%]” value in the data set on ZEAMA Sileno [1] (HER dose 2 g a.i./ha) turned out to be 100%; with ZEAMA Sileno [1] (HER dose 8 g a.i./ha), 100%; in the data set on ZEAMA Sileno [1] (HER dose 32 g a.i./ha), 100%; in the data set on ZEAMA Abraxas (setting [5]) it was 42%; with ZEAMA Sileno [2], 73%. Also, the “Reduction [Difference]” value in the data set with ZEAMA Sileno [1] (HER dose 2 g a.i./ha) came out at 25; in the data set on ZEAMA Sileno [1] (HER dose 8 g a.i./ha) it was 35; in the data set with ZEAMA Sileno [1] (HER dose 32 g a.i./ha), 75; in the data set on ZEAMA Abraxas (setting [5]) it was 25; in the data set with ZEAMA Sileno [2], 55. Besides, the “HER effect + SAF (crop damage with safener)” value with ZEAMA Sileno [1] (HER dose 2 g a.i./ha), in the data set with ZEAMA Sileno [1] (HER dose 8 g a.i./ha) and in the data set on ZEAMA Sileno [1] (HER dose 32 g a.i./ha) was 0% each time. Also, the “HER effect (crop damage, herbicide without safener)” value with ZEAMA Sileno [1] (HER dose 2 g a.i./ha) amounted to 25%; in the data set with ZEAMA Sileno [1] (HER dose 8 g a.i./ha) it was 35%; with ZEAMA Sileno [1] (HER dose 32 g a.i./ha), 75%. Moreover, the results for the “HER effect + SAF” value in the data set with ZEAMA Abraxas (setting [6]) and in the data set with ZEAMA Sileno [2] were 35% and 20%, respectively. The HER effect in the data set with ZEAMA Abraxas (HER dose 2 g a.i./ha) amounted to 60%; in the data set on ZEAMA Sileno [2] it was 75%.
For the molecule `COCCOC(=O)C1C=CC(NC(=O)C2(CCl)CC(c3cc(F)cc(F)c3)=NO2)C1` (stereo not shown) [Example 1.1], in the data set on ZEAMA Sileno [1] (HER dose 8 g a.i./ha), the “Reduction [%]” value amounted to 100%; the “Reduction [Difference]” value is 30; the “HER effect + SAF (crop damage with safener)” value worked out at 0%; the “HER effect (crop damage, herbicide without safener)” value is given as 30%. In the data set with ZEAMA Sileno [1] (HER dose 32 g a.i./ha), the “Reduction [%]” value stood at 100%; the “Reduction [Difference]” value is given as 70; the “HER effect + SAF (crop damage with safener)” value is on record as 0%; the “HER effect (crop damage, herbicide without safener)” value amounted to 70%. In the data set with ZEAMA Abraxas (setting [9]), the “Reduction [%]” value is recorded as 84% and the “Reduction [Difference]” value came out at 80. In addition, the “HER effect + SAF” value with ZEAMA Abraxas (setting [10]) was found to be 15%. The HER effect with ZEAMA Abraxas (HER dose 32 g a.i./ha) turned out to be 95%. In addition, in the data set with ZEAMA Sileno [2], the “Reduction [%]” value came out at 79%, the “Reduction [Difference]” value worked out at 55, the “HER effect + SAF” value was determined as 15% and the HER effect is 70%.

The record behind these values is US20230240297A1, “SELECTIVE HERBICIDES BASED ON SUBSTITUTED ISOXAZOLIN CARBOXAMIDES AND CYPROSULFAMIDE” (Bayer Aktiengesellschaft, priority 2020, published 2023).
